In publication PMC7745444 (ACS Omega, 2020) one finds Ki data, which are given here for two compounds.

Test [1] addresses β-galactosidase (Escherichia coli, UniProt P00722). Briefly: p-nitrophenyl galactopyranoside hydrolysis, absorbance at […] nm. It is filed as biochemical.
For test [2], the target named is β-glucosidase. As to the kind of experiment: p-nitrophenyl glucopyranoside hydrolysis, absorbance at […] nm. It is filed as biochemical, Prunus dulcis.

One may read the Ki as a dissociation constant, usually derived from enzyme kinetics or from competition with a known ligand.

Sequence of β-galactosidase (P00722 2-1024): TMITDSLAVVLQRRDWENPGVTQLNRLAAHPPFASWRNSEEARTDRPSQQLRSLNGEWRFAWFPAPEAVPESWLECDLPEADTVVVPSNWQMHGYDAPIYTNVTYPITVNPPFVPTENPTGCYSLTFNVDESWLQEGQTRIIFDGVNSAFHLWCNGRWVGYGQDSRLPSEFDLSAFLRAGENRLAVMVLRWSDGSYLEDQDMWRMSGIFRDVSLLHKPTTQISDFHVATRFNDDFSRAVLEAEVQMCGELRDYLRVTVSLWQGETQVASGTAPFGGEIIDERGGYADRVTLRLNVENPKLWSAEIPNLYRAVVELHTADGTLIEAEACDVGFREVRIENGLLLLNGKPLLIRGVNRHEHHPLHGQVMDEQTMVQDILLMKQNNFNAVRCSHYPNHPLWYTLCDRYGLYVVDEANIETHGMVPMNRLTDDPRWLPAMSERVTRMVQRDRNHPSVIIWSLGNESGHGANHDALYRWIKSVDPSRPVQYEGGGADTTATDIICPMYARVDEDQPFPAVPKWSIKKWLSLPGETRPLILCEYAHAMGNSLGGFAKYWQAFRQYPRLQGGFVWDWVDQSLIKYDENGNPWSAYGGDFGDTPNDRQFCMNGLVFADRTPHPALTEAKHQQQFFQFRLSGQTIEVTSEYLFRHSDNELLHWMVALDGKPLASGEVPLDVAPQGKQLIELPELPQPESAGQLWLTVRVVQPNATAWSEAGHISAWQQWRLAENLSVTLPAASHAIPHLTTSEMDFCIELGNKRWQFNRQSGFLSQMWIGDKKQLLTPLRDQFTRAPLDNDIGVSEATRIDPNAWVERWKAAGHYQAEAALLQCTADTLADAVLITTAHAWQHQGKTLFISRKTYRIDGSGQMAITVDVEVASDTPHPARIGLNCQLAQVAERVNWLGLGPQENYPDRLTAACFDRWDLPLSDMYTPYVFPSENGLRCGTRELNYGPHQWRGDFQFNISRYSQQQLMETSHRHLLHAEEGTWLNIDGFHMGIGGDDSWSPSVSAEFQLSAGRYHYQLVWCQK

For `O=C(O)[C@H]1[C@@H]2CN[C@H](CO)[C@@H](O)[C@@H]21` [8a, (1R,4R,5S,6S,7S)-5-Hydroxy-4-(hydroxymethyl)-3-azabicyclo[4.1.0]heptane-7-carboxylic Acid], in test [1], the Ki stood at 1.18 mM.

`CN1C[C@H]2[C@H](CO)[C@H]2[C@H](O)[C@H]1CO` [compound 9, (1S,4R,5S,6S,7S)-4,7-bis(Hydroxymethyl)-3-methyl-3-azabicyclo[4.1.0]heptan-5-ol]: the Ki in test [2] turned out to be 4.43 mM.
